# Reference: ChEMBL document CHEMBL1201862, “PubChem BioAssay data set” (2004)
# The source made the active and inactive calls.
# Experiments:
# [1] = biological target: Photoreceptor-specific nuclear receptor (Homo sapiens, UniProt Q9Y5X4); type: functional, cell-based;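 further: CHO-S cells with Gal4-NCOR and VP16-NR2E3 two-hybrid luciferase reporter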
# [2] = biological target: Steroidogenic factor 1 (Homo sapiens, UniProt Q13285); assay: Counterscreen for inverse agonists of the liver receptor homolog-1 (LRH-1; NR5A2): Luminescence-based cell-based high throughput dose response assay to identify inverse agonists of the Steroidogenic Factor 1 Nuclear Receptor (SF1; NR5A1).; type: functional
# Steroidogenic factor 1, sequence (Q13285 whole entry): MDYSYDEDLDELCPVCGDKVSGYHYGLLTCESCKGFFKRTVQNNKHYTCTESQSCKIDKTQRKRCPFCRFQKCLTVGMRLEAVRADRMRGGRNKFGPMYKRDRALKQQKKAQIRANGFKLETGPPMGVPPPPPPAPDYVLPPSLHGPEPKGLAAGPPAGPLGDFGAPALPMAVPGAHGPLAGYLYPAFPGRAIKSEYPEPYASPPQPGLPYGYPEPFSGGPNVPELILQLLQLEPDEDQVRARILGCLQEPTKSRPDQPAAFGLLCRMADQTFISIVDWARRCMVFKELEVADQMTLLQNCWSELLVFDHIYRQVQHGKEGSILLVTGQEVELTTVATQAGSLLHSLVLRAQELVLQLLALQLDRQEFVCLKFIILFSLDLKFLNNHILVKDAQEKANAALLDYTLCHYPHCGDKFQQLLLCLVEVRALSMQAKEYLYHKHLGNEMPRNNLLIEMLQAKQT
# [3] = biological target: Nuclear receptor subfamily 5 group A member 2 (Homo sapiens, UniProt O00482); type: functional, cell-based;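 further: HEK293T cells transfected with LRH-1 and a StAR promoter luciferase reporter; potency for inhibitors that lower LRH-1 driven reporter light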
# Nuclear receptor subfamily 5 group A member 2, sequence (O00482 whole entry): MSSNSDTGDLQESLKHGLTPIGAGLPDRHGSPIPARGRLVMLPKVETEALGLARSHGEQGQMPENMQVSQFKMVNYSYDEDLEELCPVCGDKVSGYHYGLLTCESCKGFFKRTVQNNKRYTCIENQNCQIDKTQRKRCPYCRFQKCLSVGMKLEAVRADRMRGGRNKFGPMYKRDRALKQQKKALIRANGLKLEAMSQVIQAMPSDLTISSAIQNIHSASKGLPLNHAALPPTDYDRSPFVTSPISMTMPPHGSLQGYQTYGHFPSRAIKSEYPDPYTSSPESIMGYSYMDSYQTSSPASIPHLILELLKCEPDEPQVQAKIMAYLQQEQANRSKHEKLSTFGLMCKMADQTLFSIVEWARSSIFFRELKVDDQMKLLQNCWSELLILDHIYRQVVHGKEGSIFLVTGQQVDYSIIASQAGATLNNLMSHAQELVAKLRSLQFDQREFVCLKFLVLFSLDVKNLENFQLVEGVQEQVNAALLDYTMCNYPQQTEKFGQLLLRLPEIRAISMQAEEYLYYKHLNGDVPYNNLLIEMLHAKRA
# [4] = StAR promoter reporter inhibition counter-screen, dose response, counter-screen for LRH-1 inverse agonist project, cell-based, luminescence, luciferase reporter (AID 651969); type: functional
# [5] = biological target: Tyrosine-protein phosphatase non-receptor type 5 (Homo sapiens, UniProt P54829); assay: STEP phosphatase inhibitors, confirmation, biochemical, fluorescence intensity, uHTS hits (AID 602372); type: functional; conditions: read-out: IC50_Mean
# [6] = biological target: Genome polyprotein (dengue virus type 2, UniProt P29990); assay: Dengue-2 NS5 methyltransferase inhibitors, primary screen, biochemical, confirmation dose response (AID 588689); type: functional
# Genome polyprotein, sequence (P29990 2492-3391 limits assumed): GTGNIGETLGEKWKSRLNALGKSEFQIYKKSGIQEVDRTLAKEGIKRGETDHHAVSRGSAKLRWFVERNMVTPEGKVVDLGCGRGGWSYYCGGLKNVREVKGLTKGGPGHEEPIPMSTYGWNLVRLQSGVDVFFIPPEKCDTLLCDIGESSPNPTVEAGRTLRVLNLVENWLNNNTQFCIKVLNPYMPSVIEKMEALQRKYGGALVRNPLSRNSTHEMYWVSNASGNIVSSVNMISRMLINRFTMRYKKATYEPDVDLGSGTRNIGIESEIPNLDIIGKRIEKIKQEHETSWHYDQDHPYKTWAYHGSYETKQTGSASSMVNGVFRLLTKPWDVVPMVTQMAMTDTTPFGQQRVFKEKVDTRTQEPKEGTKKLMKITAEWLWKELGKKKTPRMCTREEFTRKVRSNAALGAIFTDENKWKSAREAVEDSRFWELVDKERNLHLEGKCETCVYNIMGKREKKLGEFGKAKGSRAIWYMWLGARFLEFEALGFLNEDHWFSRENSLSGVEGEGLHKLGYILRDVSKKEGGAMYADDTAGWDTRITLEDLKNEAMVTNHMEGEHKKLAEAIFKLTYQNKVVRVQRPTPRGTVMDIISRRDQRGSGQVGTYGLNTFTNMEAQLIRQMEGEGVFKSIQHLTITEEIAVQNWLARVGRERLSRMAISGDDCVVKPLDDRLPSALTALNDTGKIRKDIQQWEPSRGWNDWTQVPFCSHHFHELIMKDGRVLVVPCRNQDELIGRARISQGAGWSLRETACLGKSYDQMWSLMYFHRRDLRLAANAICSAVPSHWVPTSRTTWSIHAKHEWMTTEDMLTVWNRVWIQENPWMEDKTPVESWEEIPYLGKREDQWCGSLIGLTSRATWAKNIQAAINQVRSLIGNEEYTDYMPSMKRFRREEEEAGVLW
# [7] = biological target: Dual specificity protein phosphatase 3 (Homo sapiens, UniProt P51452); assay: VHR phosphatase inhibition, dose response, selectivity assay for STEP inhibitor project, biochemical (AID 602374); type: functional; conditions: read-out: IC50_Mean
# Dual specificity protein phosphatase 3, sequence (P51452 whole entry): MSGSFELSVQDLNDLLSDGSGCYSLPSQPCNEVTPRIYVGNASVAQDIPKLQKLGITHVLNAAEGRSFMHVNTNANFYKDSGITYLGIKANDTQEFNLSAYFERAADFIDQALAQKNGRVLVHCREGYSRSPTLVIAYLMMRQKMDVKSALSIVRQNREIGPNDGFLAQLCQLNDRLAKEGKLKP
# [8] = biological target: Tyrosine-protein phosphatase non-receptor type 11 (Homo sapiens, UniProt Q06124); assay: SHP2 phosphatase inhibition, dose response, selectivity assay for STEP inhibitor project, biochemical (AID 602367); type: functional; conditions: read-out: IC50_Mean
# Tyrosine-protein phosphatase non-receptor type 11, sequence (Q06124 whole entry): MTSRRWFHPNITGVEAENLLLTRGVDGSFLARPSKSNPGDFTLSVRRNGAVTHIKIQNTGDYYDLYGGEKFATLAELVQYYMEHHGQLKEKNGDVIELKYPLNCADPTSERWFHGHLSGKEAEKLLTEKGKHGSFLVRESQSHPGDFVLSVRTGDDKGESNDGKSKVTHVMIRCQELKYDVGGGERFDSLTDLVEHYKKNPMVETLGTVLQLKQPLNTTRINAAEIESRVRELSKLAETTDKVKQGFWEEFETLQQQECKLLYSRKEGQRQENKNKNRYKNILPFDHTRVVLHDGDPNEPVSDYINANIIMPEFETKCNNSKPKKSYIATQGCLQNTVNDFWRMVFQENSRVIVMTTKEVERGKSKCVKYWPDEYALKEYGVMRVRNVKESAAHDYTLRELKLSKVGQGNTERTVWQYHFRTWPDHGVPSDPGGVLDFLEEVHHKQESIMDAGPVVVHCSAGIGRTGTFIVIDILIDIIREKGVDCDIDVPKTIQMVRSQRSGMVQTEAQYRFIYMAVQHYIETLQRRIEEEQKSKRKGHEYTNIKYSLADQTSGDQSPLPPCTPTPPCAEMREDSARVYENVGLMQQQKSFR
# [9] = biological target: T1, Long-chain-fatty-acid--AMP ligase FadD28 (Mycobacterium tuberculosis, UniProt P9WQ59); assay: Fluorescence polarization aasay to screen for inhibitors that compete for the binding of FadD28 to a bisubstrate Measured in Biochemical System Using Plate Reader - 2147-01_Inhibitor_Dose_CherryPick_Activity.; type: functional, Mycobacterium tuberculosis H37Rv
# T1 sequence (P9WQ59 whole entry): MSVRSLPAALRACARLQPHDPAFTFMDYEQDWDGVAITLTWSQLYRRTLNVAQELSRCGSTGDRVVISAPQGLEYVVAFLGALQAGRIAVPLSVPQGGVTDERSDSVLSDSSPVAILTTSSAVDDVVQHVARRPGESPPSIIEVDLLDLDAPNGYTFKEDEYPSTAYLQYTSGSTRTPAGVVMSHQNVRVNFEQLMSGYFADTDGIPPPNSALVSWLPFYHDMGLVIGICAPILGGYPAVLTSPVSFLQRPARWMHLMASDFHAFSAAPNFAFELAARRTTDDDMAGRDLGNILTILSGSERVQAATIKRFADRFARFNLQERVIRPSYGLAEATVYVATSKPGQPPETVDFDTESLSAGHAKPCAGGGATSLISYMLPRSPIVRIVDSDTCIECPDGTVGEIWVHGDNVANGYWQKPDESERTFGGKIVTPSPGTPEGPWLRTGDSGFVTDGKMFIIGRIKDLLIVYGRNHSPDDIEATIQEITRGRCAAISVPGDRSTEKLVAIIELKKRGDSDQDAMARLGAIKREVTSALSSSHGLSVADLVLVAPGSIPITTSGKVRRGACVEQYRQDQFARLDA
# [10] = biological target: T2, RNA-binding protein pos-1 (Caenorhabditis elegans, UniProt G5EF15); assay: inhibitors of POS-1/mex-3 RNA binding, dose response, biochemical, fluorescence polarization (AID 1964);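 further: purified POS-1 fused to maltose binding protein made in E. coli; potency of compounds blocking POS-1 binding to fluorescent RNA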
# T2 sequence (G5EF15 whole entry): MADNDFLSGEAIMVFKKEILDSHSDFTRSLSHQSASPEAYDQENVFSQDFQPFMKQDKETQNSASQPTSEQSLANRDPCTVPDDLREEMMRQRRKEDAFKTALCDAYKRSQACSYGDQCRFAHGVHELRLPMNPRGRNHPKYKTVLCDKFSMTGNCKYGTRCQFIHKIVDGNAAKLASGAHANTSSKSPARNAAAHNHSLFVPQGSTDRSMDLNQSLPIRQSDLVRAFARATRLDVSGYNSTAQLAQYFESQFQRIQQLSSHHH
# [11] = biological target: T3, Zinc finger protein mex-5 (Caenorhabditis elegans, UniProt Q9XUB2); assay: MEX-5/TCR-2 RNA interaction inhibitors, dose response, biochemical, C. elegans, fluorescence polarization (AID 1960)
# T3 sequence (Q9XUB2 whole entry): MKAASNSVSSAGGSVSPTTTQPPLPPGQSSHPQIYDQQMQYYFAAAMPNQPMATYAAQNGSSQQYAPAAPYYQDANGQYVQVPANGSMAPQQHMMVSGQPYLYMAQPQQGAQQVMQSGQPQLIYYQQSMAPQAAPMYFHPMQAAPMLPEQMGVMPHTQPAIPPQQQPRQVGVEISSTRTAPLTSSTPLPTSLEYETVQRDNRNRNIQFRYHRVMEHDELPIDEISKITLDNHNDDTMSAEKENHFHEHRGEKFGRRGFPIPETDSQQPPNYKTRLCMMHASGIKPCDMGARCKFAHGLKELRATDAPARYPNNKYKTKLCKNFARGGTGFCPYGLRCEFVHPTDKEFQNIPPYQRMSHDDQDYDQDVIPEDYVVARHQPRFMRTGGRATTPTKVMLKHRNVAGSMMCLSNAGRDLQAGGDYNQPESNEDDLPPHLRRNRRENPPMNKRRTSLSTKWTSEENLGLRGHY
# [12] = biological target: Beta Lactamase (Pseudomonas aeruginosa, UniProt Q932Y6); assay: beta-lactamase reporter inhibitor potency, dose response, artefact control for NOD2-RIPK2 interaction inhibitor project, BLA reporter cells, FRET fluorescence (AID 651552); type: functional, cell-based
# Beta Lactamase, sequence (Q932Y6 whole entry): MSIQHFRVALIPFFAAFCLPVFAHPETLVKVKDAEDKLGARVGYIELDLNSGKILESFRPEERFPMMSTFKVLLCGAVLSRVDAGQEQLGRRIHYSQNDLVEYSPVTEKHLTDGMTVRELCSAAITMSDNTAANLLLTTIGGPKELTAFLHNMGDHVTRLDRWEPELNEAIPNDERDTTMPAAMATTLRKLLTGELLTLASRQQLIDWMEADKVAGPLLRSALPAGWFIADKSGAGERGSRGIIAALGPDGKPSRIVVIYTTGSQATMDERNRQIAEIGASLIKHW
# [13] = biological target: T4, X-box-binding protein 1 (Homo sapiens, UniProt P17861); type: functional, Cricetulus griseus;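 further: confirmatory dose-response counter-screen serving a CHOP assay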
# T4 sequence (P17861 whole entry): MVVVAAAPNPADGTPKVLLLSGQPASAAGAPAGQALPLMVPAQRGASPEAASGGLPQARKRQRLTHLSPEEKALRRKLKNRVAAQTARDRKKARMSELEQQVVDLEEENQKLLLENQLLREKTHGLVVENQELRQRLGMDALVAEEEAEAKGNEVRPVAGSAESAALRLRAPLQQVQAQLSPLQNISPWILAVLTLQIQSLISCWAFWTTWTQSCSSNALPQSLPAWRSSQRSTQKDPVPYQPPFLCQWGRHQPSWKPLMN
# [14] = biological target: Heat shock protein HSP 90-alpha (Homo sapiens, UniProt P07900); type: functional, organism-based
# [15] = Fluorescence-based cell-based high throughput dose response assay for inhibitors of the interaction of nucleotide-binding oligomerization domain containing 2 (NOD2) and the receptor-interacting serine-threonine kinase 2 (RIPK2).; type: functional; conditions: Homo sapiens
# [16] = biological target: T5, Microphthalmia-associated transcription factor (Homo sapiens, UniProt O75030); assay: TRPM1 promoter luciferase signal decrease, dose response, MITF inhibitor project, cell-based, SK-MEL-5, cherry-picked, set 3 (AID 493073); type: functional
# T5 sequence (O75030 whole entry): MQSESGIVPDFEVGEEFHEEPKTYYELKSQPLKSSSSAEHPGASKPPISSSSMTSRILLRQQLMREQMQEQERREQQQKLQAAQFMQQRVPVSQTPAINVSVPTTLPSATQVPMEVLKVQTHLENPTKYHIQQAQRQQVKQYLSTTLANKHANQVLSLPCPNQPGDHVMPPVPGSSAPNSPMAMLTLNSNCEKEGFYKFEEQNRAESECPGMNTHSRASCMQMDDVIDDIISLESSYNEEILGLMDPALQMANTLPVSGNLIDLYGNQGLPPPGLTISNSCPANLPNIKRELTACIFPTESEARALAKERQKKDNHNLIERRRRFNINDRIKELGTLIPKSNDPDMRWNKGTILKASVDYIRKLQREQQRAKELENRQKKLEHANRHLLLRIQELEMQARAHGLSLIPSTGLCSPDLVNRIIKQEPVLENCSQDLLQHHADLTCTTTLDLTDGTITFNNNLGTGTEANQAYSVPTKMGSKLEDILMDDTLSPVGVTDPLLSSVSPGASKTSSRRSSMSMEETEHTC
# [17] = CRF-BP/CRF-R2 complex antagonists, dose response, cell-based, uHTS hits, 384-well (AID 651639); type: functional, Homo sapiens; conditions: read-out: IC50_Mean
# [18] = biological target: T6, Corticotropin-releasing factor receptor 2/Corticotropin-releasing factor-binding protein (Homo sapiens, UniProt P24387+Q13324); assay: activators of CRF receptor 2 with binding protein – uHTS hits, confirmation (AID 602473); type: functional; conditions: read-out: EC50_Mean
# T6 sequence (Q13324 whole entry): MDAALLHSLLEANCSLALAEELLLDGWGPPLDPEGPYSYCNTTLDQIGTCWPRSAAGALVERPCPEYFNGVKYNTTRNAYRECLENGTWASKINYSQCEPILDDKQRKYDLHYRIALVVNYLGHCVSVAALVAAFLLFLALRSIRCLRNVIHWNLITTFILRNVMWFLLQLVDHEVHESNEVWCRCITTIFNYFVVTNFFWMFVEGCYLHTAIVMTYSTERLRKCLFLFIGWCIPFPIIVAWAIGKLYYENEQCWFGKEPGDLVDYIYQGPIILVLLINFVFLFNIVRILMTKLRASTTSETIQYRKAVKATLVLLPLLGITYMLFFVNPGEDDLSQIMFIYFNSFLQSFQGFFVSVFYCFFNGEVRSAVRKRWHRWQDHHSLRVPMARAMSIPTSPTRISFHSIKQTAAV
# T6 sequence (P24387 whole entry): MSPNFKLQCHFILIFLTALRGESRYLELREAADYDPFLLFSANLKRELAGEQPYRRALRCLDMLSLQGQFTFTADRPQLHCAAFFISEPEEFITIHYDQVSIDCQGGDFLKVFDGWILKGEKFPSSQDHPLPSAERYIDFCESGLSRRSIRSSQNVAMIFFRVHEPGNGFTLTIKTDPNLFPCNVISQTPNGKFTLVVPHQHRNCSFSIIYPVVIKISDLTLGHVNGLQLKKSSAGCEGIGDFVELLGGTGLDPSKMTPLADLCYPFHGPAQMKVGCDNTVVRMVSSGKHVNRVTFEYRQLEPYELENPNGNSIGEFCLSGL
# [19] = biological target: T6, Corticotropin-releasing factor receptor 2/Corticotropin-releasing factor-binding protein; assay: Dose Response confirmation of uHTS hits for small molecule antagonists of the CRF-binding protein and CRF-R2 receptor complex.; type: functional; conditions: read-out: IC50_Mean
# [20] = biological target: T7, Small ubiquitin-related modifier 1 (Homo sapiens, UniProt P63165); assay: inhibitors of SUMO1 peptide binding, dose response, biochemical, fluorescence polarization, uHTS hits (AID 624382); type: functional; conditions: read-out: IC50_Mean
# T7 sequence (P63165 whole entry): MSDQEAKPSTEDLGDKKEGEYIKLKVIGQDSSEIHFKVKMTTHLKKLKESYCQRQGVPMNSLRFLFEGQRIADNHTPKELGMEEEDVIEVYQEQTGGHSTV
# [21] = biological target: T7, Small ubiquitin-related modifier 1; assay: inhibitors of SUMO1 partner interactions, dose response, biochemical, FRET (AID 624383); type: functional; conditions: read-out: IC50_Mean
# [22] = biological target: T8, Low molecular weight phosphotyrosine protein phosphatase (Homo sapiens, UniProt P24666); type: functional; conditions: read-out: IC50_Mean
# T8 sequence (P24666 whole entry): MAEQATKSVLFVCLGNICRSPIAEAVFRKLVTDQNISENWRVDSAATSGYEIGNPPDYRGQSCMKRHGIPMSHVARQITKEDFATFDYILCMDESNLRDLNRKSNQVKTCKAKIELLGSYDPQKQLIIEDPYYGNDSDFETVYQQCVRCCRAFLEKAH
# [23] = biological target: T8, Low molecular weight phosphotyrosine protein phosphatase; type: functional; conditions: read-out: IC50_Mean; remark: listed apart in the source
# [24] = biological target: T9, ATP-dependent translocase ABCB1 (Homo sapiens, UniProt P08183); assay: ABCB1 efflux inhibitor potency, dose response, Jurkat-DNR cells, JC-1, flow cytometry, set 2 (AID 504569); type: functional; conditions: read-out: EC50_MICROM_;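 further: potency of pump inhibitors that raise cellular JC-1 green fluorescence up to the nicardipine level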
# T9 sequence (P08183 whole entry): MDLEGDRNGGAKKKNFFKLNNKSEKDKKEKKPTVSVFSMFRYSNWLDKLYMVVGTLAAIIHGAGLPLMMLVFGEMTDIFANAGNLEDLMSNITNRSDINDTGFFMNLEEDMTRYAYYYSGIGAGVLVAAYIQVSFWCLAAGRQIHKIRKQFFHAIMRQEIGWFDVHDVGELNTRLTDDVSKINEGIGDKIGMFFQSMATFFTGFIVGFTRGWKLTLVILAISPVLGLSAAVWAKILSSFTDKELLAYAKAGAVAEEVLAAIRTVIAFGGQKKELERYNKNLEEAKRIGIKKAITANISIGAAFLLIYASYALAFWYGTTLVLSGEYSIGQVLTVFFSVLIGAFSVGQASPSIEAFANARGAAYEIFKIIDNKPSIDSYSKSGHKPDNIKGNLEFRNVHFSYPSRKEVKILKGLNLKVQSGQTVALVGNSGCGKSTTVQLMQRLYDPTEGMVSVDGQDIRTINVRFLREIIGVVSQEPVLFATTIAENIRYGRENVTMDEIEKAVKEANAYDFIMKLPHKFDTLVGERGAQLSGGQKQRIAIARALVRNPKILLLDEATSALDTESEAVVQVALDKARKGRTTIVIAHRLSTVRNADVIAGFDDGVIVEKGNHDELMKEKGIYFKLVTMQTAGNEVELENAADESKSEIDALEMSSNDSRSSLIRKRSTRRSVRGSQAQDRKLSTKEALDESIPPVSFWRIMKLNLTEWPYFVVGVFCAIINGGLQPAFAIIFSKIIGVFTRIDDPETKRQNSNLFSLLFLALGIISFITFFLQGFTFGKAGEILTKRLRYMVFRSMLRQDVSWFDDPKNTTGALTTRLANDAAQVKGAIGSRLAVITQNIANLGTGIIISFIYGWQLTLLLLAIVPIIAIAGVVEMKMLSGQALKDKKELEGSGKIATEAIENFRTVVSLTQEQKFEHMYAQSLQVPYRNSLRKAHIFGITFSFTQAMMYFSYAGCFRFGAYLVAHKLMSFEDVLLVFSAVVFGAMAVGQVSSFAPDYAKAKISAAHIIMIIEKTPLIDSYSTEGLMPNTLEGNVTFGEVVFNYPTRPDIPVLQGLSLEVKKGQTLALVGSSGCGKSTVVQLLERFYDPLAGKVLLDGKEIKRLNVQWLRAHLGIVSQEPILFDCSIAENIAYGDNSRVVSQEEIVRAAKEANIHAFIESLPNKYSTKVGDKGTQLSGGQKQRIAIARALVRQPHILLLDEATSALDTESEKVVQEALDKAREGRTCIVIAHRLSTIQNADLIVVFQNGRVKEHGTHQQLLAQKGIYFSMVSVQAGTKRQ
# [25] = biological target: T9, ATP-dependent translocase ABCB1; assay: ABCG2 efflux pump inhibitor potency, dose response, Ig-MXP3 cells, JC-1, flow cytometry, set 2 (AID 504566); type: functional; conditions: read-out: EC50_MICROM_;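 further: flow cytometry median green fluorescence of retained JC-1 dye; potency of efflux pump inhibition measured as rising substrate retention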
# Photoreceptor-specific nuclear receptor, sequence (Q9Y5X4 whole entry, the tested form may be a part): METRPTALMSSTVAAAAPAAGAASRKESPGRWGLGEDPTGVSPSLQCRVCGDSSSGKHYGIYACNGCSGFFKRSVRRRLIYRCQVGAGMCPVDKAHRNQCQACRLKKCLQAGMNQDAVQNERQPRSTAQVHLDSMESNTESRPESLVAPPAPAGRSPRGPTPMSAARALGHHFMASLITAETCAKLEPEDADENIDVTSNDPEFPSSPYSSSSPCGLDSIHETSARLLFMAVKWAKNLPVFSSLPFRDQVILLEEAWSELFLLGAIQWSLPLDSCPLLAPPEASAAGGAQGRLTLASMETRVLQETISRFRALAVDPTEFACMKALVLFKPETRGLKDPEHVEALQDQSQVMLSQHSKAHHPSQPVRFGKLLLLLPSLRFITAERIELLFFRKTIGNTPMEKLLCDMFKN
compound,measurement,setting,value
Oc1cc(C(F)(F)F)nc(SC/C=C/c2ccccc2)n1,IC50,[1],12.7 µM (inactive)
O=C(Nc1ccccc1)c1oc2ccccc2c1NC(=O)C1CC1,IC50,[2],35.9 µM (inactive)
same,IC50,[3],35.9 µM (inactive)
same,IC50,[4],35.9 µM (inactive)
COc1cc(/C=C2/C(=O)NN(c3cccc(C)c3)C2=O)cc([N+](=O)[O-])c1O,IC50,[5],25.5 µM (inactive)
same,IC50,[6],51.5 µM (active)
same,IC50,[7],4.11 µM (active)
same,IC50,[8],5.63 µM (active)
same,AC50,[9],39.2 µM (active)
same,EC50,[10],> 300 µM (not active)
same,EC50,[11],89.1 µM (active)
COc1ccc(C(=O)/C=C/C(=O)N(CC(=O)NC2CCCCC2)Cc2cccs2)c(O)c1,IC50,[12],24.7 µM (inactive)
same,Absolute IC50 (XBP1),[13],10 µM
same,AC50,[14],2.98 µM (active)
same,IC50,[15],4.66 µM (active)
same,AC50,[16],5.53 µM (active)
N#Cc1c(C(F)(F)F)cc(-c2ccc(Cl)cc2)nc1O,IC50,[17],> 20 µM (inactive)
same,EC50,[18],> 53 µM (inactive)
same,IC50,[19],4.16 µM (active)
Cc1cc(C)c2nc3sc(=Cc4ccc(-c5ccccc5C(=O)O)o4)c(=O)n3c2c1,IC50,[20],> 66.6 µM (inactive)
same,IC50,[21],5.88 µM (active)
same,IC50,[22],26.5 µM (inactive)
same,IC50,[23],62.9 µM (inactive)
COc1ccc(-c2cc3nc(-c4ccccc4)cc(N4CCN(C(=O)c5ccco5)CC4)n3n2)cc1,EC50,[24],3.35 µM (active)
same,EC50,[25],1.28 µM (active)
